Results reported in patent publication US20260207759A1, “COMPOSITION OF CD40-BINDING MOLECULE AND PHARMACEUTICAL USE THEREOF” (SUZHOU SUNCADIA BIOPHARMACEUTICALS CO., LTD., priority 2022, published 2026).

Experiments:
[1] = test system: human CD40 transgenic mice; assay: Mouse skin graft rejection model (antibodies, tacrolimus combination); assay type: in vivo
Description: Male Balb/c mice, 6 weeks old, were purchased from the Laboratory Animal Management Department, Shanghai Institute of Planned Parenthood Research. Housing environment: SPF; certification number: 20180006023393.
On day-2 of the experiment, the mice were intraperitoneally injected with tacrolimus FK506 or CD40 antagonistic antibodies. On day 0 of the experiment, donor Balb/c mice and C57BL6/J mice were anesthetized with 4% chloral hydrate. The tails of the donor mice were removed, and full circles of skin, 1 cm in length, were isolated from the tails. The hair on the acceptor mice's back was removed, and an incision was made along the skin layer. An equal area of skin was removed while preserving the back fat and connective tissue. The donor skin was placed on the acceptor mice's incision site, and the incision was closed with glue. The mice were then placed back in cages to recover.
The mice were dosed according to the administration regimens in Table 16. After 7 days of recovery, the mouse skin survival was observed daily and rejection scores were recorded.

CD40 [2] = target: T1, CD40 (Homo sapiens, UniProt P25942); assay: Reporter gene cell activity of chimeric anti-CD40 antibodies (HEK-Blue CD40L cells, CD40L-induced SEAP); assay type: cell-based; parameters: host or cells: HEK-Blue CD40L cells; conditions: CD40L-stimulated HEK-Blue CD40L cells
Method: HEK-Blue CD40L cells were purchased from Invivogen (Cat. #hkb-cd40). The cells were stably transfected with the human CD40 gene and the NF-kB-mediated SEAP genome. The activation level of the CD40 signaling pathway can be characterized by detecting the secreted SEAP in the supernatant using QUANTI-Blue, the substrate of SEAP. In this experiment, the in vitro antagonist activity of anti-CD40 antibodies was assessed according to IC50 by detecting the activation of HEK-Blue CD40L cells by CD40L. HEK-Blue CD40L cells were cultured in a DMEM medium containing 10% FBS, 100 μg/mL Zeocin, and 30 μg/mL Blasticidin, and passaged 2-3 times in a week at a ratio of 1:5 or 1:10. During passaging, the medium was pipetted off, and the cell layer was rinsed with 5 mL of 0.25% pancreatin. Then the pancreatin was pipetted off, the cells were digested in an incubator for 3-5 min, and then a fresh medium was added to resuspend cells. 100 μL of cell suspension was added to a 96-well cell culture plate at a density of 5×10^5 cells/mL. The medium was DMEM containing 10% FBS, 100 μg/mL Zeocin, and 30 μg/mL Blasticidin. Only 100 μL of sterile water was added to the peripheral wells of the 96-well plate. […] The absorbance at 630 nm was measured with a microplate reader (Thermo MultiSkanFc), and IC50 values were calculated and used to assess the in vitro cell activity of the anti-CD40 antibodies.

CD40 [3] = target: T1, CD40; assay: FACS binding of human-rabbit chimeric anti-CD40 antibodies to Raji cells
Method: Raji cells are of a tumor cell line that overexpresses human CD40. 2E5 Raji cells were inoculated onto a 96-well plate. 100 μL of a test antibody was added, with the highest final concentration of 100 nM. The antibody was 5-fold diluted to 8 concentrations. The plate was incubated at 4° C. for 1 h. The plate was washed once with a washing buffer, and an AF647-conjugated anti-human IgG antibody (Jackson Immunoresearch Laborotories, Cat. #205-609-088) was added at a dilution ratio of 1:500. The plate was incubated at 4° C. for 30 min. The plate was washed once with the washing buffer, and fluorescence intensity was measured using a flow cytometer. The binding EC50 values of the anti-CD40 antibodies for CD40 were calculated. The anti-CD40 antagonistic antibody CFZ533 (i.e., iscalimab, Nova) was used as a positive control, and the heavy and light chain variable region sequences were derived from sequence 5 and sequence 2 of U.S. Pat. No. 8,277,810B, respectively.

[4] = mouse, in vivo, ip, 10 mg/kg
Method: After arrival, the animals were acclimatized for 7 days and randomly grouped. On day 0 of the experiment, each group of mice was intraperitoneally injected with the anti-CD40 antibody at 10 mg/kg. 100-150 μL of blood samples were collected at 15 min, 4 h, and 8 h after administration, and on days 1, 2, 4, 7, 10, and 14 after administration, anticoagulated with 10 μL of EDTA-K2 (0.1 M), and stored on ice. Mouse plasma was assayed by ELISA for antibody concentration at different time points. The assay is specifically as follows: A goat anti-human IgG Fc antibody (Rockland, Cat. #609-101-017) was diluted to 2.5 μg/mL with PBS and added to a 96-well plate at 50 μL/well, and the plate was incubated overnight at 4° C. After three washes with a washing buffer, 50 μL of blocking solution was added to each well, and the plate was incubated at 37° C. for 1 h. The mouse plasma and the standard curve of the test antibody were added, and the plate was incubated at 37° C. for 2 h. After three washes with the washing buffer, anti-hlgG Fab-HRP (Sigma, Cat. #A0293, 1:10,000) was added at 50 μL/well, and the plate was incubated at room temperature for 1 h. The plate was washed three times with the washing buffer. TMB was added at 100 μL/well, and the mixtures were left to react in the dark for 5 min. 0.16 M sulfuric acid was added at 100 μL/well. The OD value at 450 nm was measured with an Envision microplate reader, and the concentrations of CD40 antagonistic antibodies were calculated.

[5] = target: T2, Raji cell surface human CD40 (Homo sapiens, UniProt P25942); assay: FACS binding of humanized anti-CD40 antibodies to Raji cells
T2 construct: Raji cells highly express human CD40 on the cell surface; endogenous in cells; host or cells: Raji cells
Method: Raji cells highly express human CD40 on the cell surface and thus can be used to detect the binding properties of CD40 antagonistic antibodies to the cell surface human CD40.
Raji cells were plated at 1.5E5 cells/well, and various concentrations of CD40 antagonistic antibodies were added. The plate was incubated at 4° C. for 1 h. After two washes with FACS buffer (PBS+2% FBS), a secondary antibody (Alexa Flour488 conjugated anti-human IgG (H+L) antibody) was added, and the plate was incubated at 4° C. for 0.5 h. After two washes with FACS buffer, the fluorescence intensity on the cell surface was measured by flow cytometry (BD FACS Celesta).

T1 sequence (P25942 21-277): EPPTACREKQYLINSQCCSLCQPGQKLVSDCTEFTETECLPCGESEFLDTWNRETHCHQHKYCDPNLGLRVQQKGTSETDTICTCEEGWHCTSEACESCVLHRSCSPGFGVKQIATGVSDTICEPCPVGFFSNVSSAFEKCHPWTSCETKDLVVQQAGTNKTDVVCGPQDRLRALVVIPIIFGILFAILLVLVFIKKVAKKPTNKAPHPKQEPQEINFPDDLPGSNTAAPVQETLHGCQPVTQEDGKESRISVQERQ
T2 sequence (P25942 21-277): as above

With “CFZ533: anti-CD40 antagonistic antibody CFZ533 (i.e., iscalimab), positive control, variable regions from U.S. Pat. No. 8,277,810B” the “Day-15 skin graft survival rate (%)” value ([1]; 3 mpk ip) was 0%, the “Skin graft score, 8 days” value ([1]; 3 mpk, score 3 (best) to 0 (rejected)) was 2.7 and the “Skin graft score, 10 days” value ([1]; 3 mpk, score 3 to 0) was 2.1. The “Skin graft score, 15 days” value ([1]; 3 mpk, score 3 to 0) was 0, the “Skin graft score, 20 days” value ([1]; 3 mpk, score 3 to 0) was 0 and the “Day-15 skin graft survival rate (%)” value ([1]; 10 mpk ip) was 0%. For the same substance, the “Skin graft score, 8 days” value ([1]; 10 mpk, score 3 to 0) was 2.9, the “Skin graft score, 10 days” value ([1]; 10 mpk, score 3 to 0) was 2.1 and the “Skin graft score, 15 days” value ([1]; 10 mpk, score 3 to 0) was 0. For the same substance, the “Skin graft score, 20 days” value ([1]; 10 mpk, score 3 to 0) was 0, the IC50 (CD40 [2]) was 0.272 nM and the EC50 (CD40 [3]) was 2.41 nM. For the same substance, the “AUC(0-d14)((h) * (mg/L))” value [4] was 12655 (h) * (mg/L), the “C max” value [4] was 75.95 µg/mL and the “T1/2” value [4] was 214.8 h. For the same substance, the EC50 [5] was 1.01 nM.
